Reference: patent US7223793B2, “Phenolic acid derivatives and composition for preventing or treating blood lipid level-related diseases comprising the same” (Bionutrigen Co., Ltd., priority 2001, dated 2007)

Tests used:
[1] = tested on: New Zealand White rabbits; assay: Abnormal fat-containing cells in liver of cholesterol-fed rabbits (Experimental Example 3); format: in vivo, rabbit; details: 1% cholesterol diet, 8 weeks; for Microscopic observation of liver cells (fatty liver): FIGS. 2a-2c; for Grade of proportion of abnormal fat-containing cells in the liver lobules around the central vein: grades 1+(0-25%), 2+(26-50%), 3+(51-75), 4+(76-100%), lovastatin 1 mg/kg or BN30028 0.05 wt %
Method: Thereafter, a piece of each organ was fixed in 10% neutral formalin for at least 24 hours. The fixed organ piece was washed sufficiently with tap water, dehydrated stepwise with 70%, 80%, 90% and 100% ethanol and, then, embedded in a paraffin by employing SHANDON, Histocentre 2, USA. The embedded organ piece was sectioned in a thickness of 4 μm with a microtome (LEICA, RM2045, Germany) and stained with H & E (hematoxylin and eosin). The stained organ specimen was made transparent with xylene, mounted with permount, and then observed under a microscope.
In order to quantitatively evaluate the effects of feeding a high cholesterol diet with test substances on liver tissues, the liver specimens prepared in step 3 of the Experimental Example 3 were observed under a microscope with referring to the procedure described by Fogt F. et al. (Fogt F. and Nanji A., Toxicology and Applied Pharmacology, 136, 87-93, 1996) and the procedure described by Keegan et al. (Keegan A., et al., Journal of Hepatology 23: 591-600, 1995). The specimens were classified into for grades: 1+(0-25%), 2+(26-50%), 3+(51-75) and 4+(76-100%) according to the proportion of abnormal fat-containing cells in the liver lobules around the central vein. The significant differences between the test groups were tested by student t-test using Microsoft excel (version 7.0) program

ICR mice = assay: Acute oral toxicity in mice (Experimental Example 5); format: in vivo
Method: The toxicity of orally administered BN30028 was tested as follows. Four-week-old specific pathogen-free ICR mice, 12 female mice and 12 male mice, were kept in a room under conditions of 22±3° C., 55±10% relative humidity and 12L/12D photoperiod. The mice was acclimated for one week before using in experiment. Fodder (Cheiljedang Co., mouse and rat fodder) and water were sterilized and freely fed to the mice.
BN30028 was dissolved in 0.5% Tween 80 to a concentration of […] and the solution was orally administered to the mice in an amount of 0.2 mL (1 g/kg), 0.4 mL (2 g/kg) or 0.8 mL (4 g/kg) per 20 g of mouse body weight. The solution was administered once for the 1 g/kg and 2 g/kg groups and twice for the 4 g/kg group. […] Also, on the 7th day, the mice were sacrificed and the internal organs were visually examined. From the day of the administration, the weight changes of the animals were recorded every other day to examine the effect of BN30028 on the reduction of body weight of animals.

SMILES | Microscopic observation of liver cells (fatty liver) [1] | Grade of proportion of abnormal fat-containing cells in the liver lobules around the central vein [1] | Proportion of fat-modified cells compared to control ([1]; p<0.05) | Body weight change (ICR mice; oral 1 g/kg, 2 g/kg and 4 g/kg, 7 days after the administration) | LD50 (ICR mice; orally administered, female and male mice)
CC[C@H](C)C(=O)O[C@H]1C[C@@H](C)C=C2C=C[C@H](C)[C@H](CC[C@@H]3C[C@@H](O)CC(=O)O3)[C@H]21 [Lovastatin, reference compound] | many cells containing excessive fat were observed around the central vein | 3.97 ± 0.15 | – | – | –
COC(=O)C(Cc1ccccc1)NC(=O)CCc1ccc(O)c(O)c1 (stereo not shown) [BN30028, 2-[3-(3,4-dihydroxyphenyl)propionylamino]-3-phenyl propionic acid methyl ester] | almost all liver cells of the rabbits administered with BN30028 are of a normal shape | 3.57 ± 0.35 | significantly reduced | normal weight increase without any weight loss | more than 4 g/kg body weight
